According to patent publication US7264947B2, “Activity dependent neurotrophic factor III (ADNF III)” (United States of America, as represented by the Secretary …, priority 1997, dated 2007):
“And” between values parts separate entries of the source, which are not always exact repeats. Identical values can stand only once. “Also recorded” adds a separate entry of the source.

Key:
[1] = system: cerebral cortical cultures; assay: neuroprotection against β-amyloid peptide (25-35) neurotoxicity in cerebral cortical cultures; type: cell-based, newborn rats; conditions: 25 μM β-amyloid fragment 25-35, five days; P<0.01
AF64A-treated animals = assay: water maze, learning and memory deficiencies associated with cholinergic blockade (AF64A); type: in vivo; conditions: rats, cholinotoxin AF64A, peptide intranasally; listed as NAPVSIPQ
Protocol: Protection against learning and memory deficiencies associated with cholinergic blockade was evaluated. Cholinergic blockade was obtained in rats by administration of the cholinotoxin AF64A, NAPVSIPQ (SEQ ID NO:6), which was administered intranasally and the water maze experiments were performed as before (Gozes et al., Proc. Natl. Acad. Sci. USA 93:427-432 (1996), the teachings of which are incorporated herein by reference).
The ability of ADNF III polypeptides to protect against learning and memory deficiencies associated with cholinergic blockade was also investigated. Cholinergic blockade was obtained in rats by administration of the cholinotoxin AF64A, NAPVSIPQ (SEQ ID NO:6) (termed NAP in FIG. 8). NAPVSIPQ (SEQ ID NO:6) was administered intranasally and the water maze experiments were performed as before (Gozes et al., Proc. Natl. Acad. Sci. USA 93:427-432 (1996)).

[2] = system: cerebral cortical cultures; assay: neuroprotection against NMDA toxicity in cerebral cortical cultures; type: cell-based, newborn rats; conditions: NMDA 10 μM
[3] = system: choline acetyl transferase; assay: brain ChAT (choline acetyl transferase) activity in ApoE-deficient mice; type: in vivo; conditions: daily subcutaneous injections from birth to 14 days, measured at 21 days
Protocol: The graph depicts incorporation of radio-labeled choline into acetylcholine. Experiments were conducted as described. Apo-E deficient mice are designated: ApoE; 100% activity in the control (C57B6) mice indicated 669758.4 pmole/mg protein/min. As the experiments were repeated 3-5 times the results were standardized against the control calibrated at 100% per each experiment. ApoE-deficient mice daily injected with peptides are designated ADNF-14, ADNF-9, and NAP, respectively.
ChAT activity was measured according to published procedures (Formum et al., Neurochem. 24:407-409 (1975)). Brains were homogenized with 10 volumes of 50 mM phosphate buffer containing 300 mM NaCl, 20 mM EDTA, and 0.5% triton. The homogenates were centrifuged at 12,000×g for 15 min., and […] of supernatant was mixed with […] of a solution of […] ^14C-acetyl CoA ([…] NEN), 20 mM acetylcholine, 1.6 mM choline chloride, 0.25 mM eserine, and phosphate buffer. Incubation was 15 min. at 37° C. The reaction was terminated and radioactivity was measured in a beta-counter. • 21. Apolipoprotein E (ApoE) Deficient Mouse Model
ApoE knockout mice and normal controls were a gift from the late Prof. Shlomo Eisenberg of Tel Aviv University, originally provided by Dr. J. L. Breslow (Plump et al., Cell 71:343-353 (1992)). The ApoE knockout mice were obtained from embryonic stem cells OLA 129 in C57B6×FVB mice (as described). Age-matched controls were inbred C57B6 mice. Groups of mouse pups were treated from birth until the age of 14 days. Daily subcutaneous injections included: […] saline (days 1 through 4), […] saline (days 5 through 10) and […] saline (days 11-14).
ChAT activity was measured according to published procedures (Formum et al., Neurochem. 24:407-409 (1975)).

[4] = structure-activity studies of ADNF III peptides (FIGS. 7A and 7B); type: cell-based
[5] = system: cerebral cortical cultures; assay: protection from naturally occurring cell death in cerebral cortical cultures; type: cell-based, newborn rats; conditions: FIG. 6C, no toxin added
ADNF III mRNA = assay: northern blot of ADNF III mRNA in brain of ApoE-deficient mice; type: in vivo; conditions: 28-day-old ApoE-deficient mice, daily injections for the first two weeks of life
Protocol: FIG. 9 illustrates northern blot identification of ADNF III mRNA. RNA was extracted from the brains of 28-day-old apolipoprotein E-deficient mice (E) treated with saline for the first two weeks of life or with NAP (E+N), control mice (C) were treated with saline. RNA was subjected to northern blot hybridization with a PCR-labeled ADNF III specific probe (α-^32P-dCTP, Amersham, 3000 Ci/mmol) (see FIG. 2) in comparison to an actin-specific probe (Gozes et al., Mol. Brain Res. 2:137-148 (1987)).
b. Hybridization: The blots were prehybridized for two hours at 55° C. and were hybridized with a specific complementary DNA probe for the mouse ADNF III cDNA (a PCR product obtained using the following primers: 61-79 and the complementary strand from position 438-455, which are described in detail below). The labeled probe was prepared by random priming and incubated with the blot for 16 hours at 55° C. Prehybridization and hybridization solutions (12 ml/blot) contained the following: 50% formamide (deionized using mixed bed resin, Sigma), 50 mM sodium phosphate buffer (pH 6.5), 0.8 M NaCl, 1 mM EDTA, 5× Denhart's reagent (0.05% BSA, 0.05% polyvinylpyrrolidone and 0.05% Ficoll), 0.1% SDS and […] poly(A). The labeled probe was dissolved in 12 ml of hybridization solution and added to the prehybridization mixture. […]

[6] = system: cerebral cortical cultures; assay: neuroprotection against gp120 toxicity in cerebral cortical cultures; type: cell-based, newborn rats; conditions: 1 pM gp120 (RFII isolate)

Asn-Ala-Pro-Val-Ser-Ile-Pro-Gln [NAP]
concentrations of significant neuroprotection against β-amyloid [1]: 10^−16 M and 10^−15 M | learning and memory in water maze (AF64A-treated animals): showed improvement in their learning and memory capacities and behaved as control animals | concentrations of significant neuroprotection against NMDA [2]: > 10^−16 M | brain ChAT activity compared with inbred C57B6 mice [3]: not significantly different; also recorded: indistinguishable from controls | brain ChAT activity compared with vehicle-treated or untreated ApoE-deficient mice [3]: significantly improved | relative activity in structure-activity studies [4]: most active peptide | peak optimum concentrations ([4]; two peaks, listed as NAPVSIPQ): 10^−16-10^−14 M and 10^−11-10^−10 M | protection from naturally occurring cell death [5]: protected neurons | ADNP mRNA content (ADNF III mRNA): did not change | concentrations of significant neuroprotection against gp120 [6]: 10^−15-10^−10 M
